These results are taken from patent publication US5614520A, “2-arylthiazole derivatives and pharmaceutical composition thereof” (priority 1990, dated 1997).

For one experiment, the system named is interleukin 1 production. Kind of experiment: Interleukin 1 production inhibitory activity (LPS, abdominal exuded macrophage, ELISA). In kind it is cell-based, BALB/c mouse. To be noted: 10^-6 M, 1 μg/ml LPS, 24 hours, mouse macrophage. As for the experimental part: 1 ml of a 5% oyster glycogen solution was intra-abdominally administered to a BALB/c mouse (male, 8 weeks in age), and 4 days after the administration, the infiltrated abdominal exuded cells were adhered to a plastic dish for 2 hours, and 1 μg/ml of LPS was allowed to act on macrophage (1×10^6 cells). Interleukin 1 extricated on the supernatant in 24 hours was measured by an ELISA technique. The test compound (compounds of Ex. No. described in Table 3) was prepared so as to have a concentration of 10^-6 M, and the interleukin 1 production inhibitory activity was, expressed in terms of the percentage inhibition based on the amount of production of the control.
(In general: An ELISA detects its analyte on a solid surface through an enzyme-linked reagent.)

The next experiment concerns serum uric acid. Kind of experiment: Determination of oral administration: lowering of serum uric acid in mice. The format is in vivo, ICR male mice. To be noted: Mus musculus; ICR male mice, oral, 1 mg/kg, 2 hours after administration, serum; read-out: Activity of lowering uric acid. As for the experimental part:
Test compounds suspended in a 5% gum arabic solution was forcibly administered by oral administration (compounds of Ex. No. of Table 2, dose: 1 mg/kg) to ICR male mice (age: about 7 weeks) (one group: 6 mice) by means of an oral probe. 2 hours after the administration, thoracotomy was conducted under etherization to collect blood from the heart, and serum was removed by a conventional process. The serum uric acid was measured by a biochemical automatic analyzer (Flexigem; Electro-Nucleonics, Inc.) by using a uric acid measurement kit (UA reagent; International Reagent) to determine the percentage of the lowering of uric acid. [formula]

The target in another experiment is T1, xanthine oxidase (Bos taurus, UniProt P80457).
T1 construct: purchased Sigma Chemical Company; host or cells: butter milk
The experiment in a line: In vitro determination of xanthine oxidase (XOD) inhibition. The following applies: xanthine oxidase from butter milk, xanthine substrate, pH 7.4, 37° C. In kind it is biochemical. As for the experimental part:
(1) Preparation of test compounds:
Test compounds (compounds of Ex. No. listed in Table 1) were dissolved in dimethylsulfoxide and diluted with a 50 mM phosphate buffer to prepare aqueous solutions respectively having predetermined concentrations.
The inhibition rate was determined by the following equation: [formula]
The inhibition (%) was determined on each test compound prepared according to (1), and the IC50 value on the xanthine oxidase (XOD) inhibition was calculated from the value of inhibition.

T1 sequence (P80457 whole entry): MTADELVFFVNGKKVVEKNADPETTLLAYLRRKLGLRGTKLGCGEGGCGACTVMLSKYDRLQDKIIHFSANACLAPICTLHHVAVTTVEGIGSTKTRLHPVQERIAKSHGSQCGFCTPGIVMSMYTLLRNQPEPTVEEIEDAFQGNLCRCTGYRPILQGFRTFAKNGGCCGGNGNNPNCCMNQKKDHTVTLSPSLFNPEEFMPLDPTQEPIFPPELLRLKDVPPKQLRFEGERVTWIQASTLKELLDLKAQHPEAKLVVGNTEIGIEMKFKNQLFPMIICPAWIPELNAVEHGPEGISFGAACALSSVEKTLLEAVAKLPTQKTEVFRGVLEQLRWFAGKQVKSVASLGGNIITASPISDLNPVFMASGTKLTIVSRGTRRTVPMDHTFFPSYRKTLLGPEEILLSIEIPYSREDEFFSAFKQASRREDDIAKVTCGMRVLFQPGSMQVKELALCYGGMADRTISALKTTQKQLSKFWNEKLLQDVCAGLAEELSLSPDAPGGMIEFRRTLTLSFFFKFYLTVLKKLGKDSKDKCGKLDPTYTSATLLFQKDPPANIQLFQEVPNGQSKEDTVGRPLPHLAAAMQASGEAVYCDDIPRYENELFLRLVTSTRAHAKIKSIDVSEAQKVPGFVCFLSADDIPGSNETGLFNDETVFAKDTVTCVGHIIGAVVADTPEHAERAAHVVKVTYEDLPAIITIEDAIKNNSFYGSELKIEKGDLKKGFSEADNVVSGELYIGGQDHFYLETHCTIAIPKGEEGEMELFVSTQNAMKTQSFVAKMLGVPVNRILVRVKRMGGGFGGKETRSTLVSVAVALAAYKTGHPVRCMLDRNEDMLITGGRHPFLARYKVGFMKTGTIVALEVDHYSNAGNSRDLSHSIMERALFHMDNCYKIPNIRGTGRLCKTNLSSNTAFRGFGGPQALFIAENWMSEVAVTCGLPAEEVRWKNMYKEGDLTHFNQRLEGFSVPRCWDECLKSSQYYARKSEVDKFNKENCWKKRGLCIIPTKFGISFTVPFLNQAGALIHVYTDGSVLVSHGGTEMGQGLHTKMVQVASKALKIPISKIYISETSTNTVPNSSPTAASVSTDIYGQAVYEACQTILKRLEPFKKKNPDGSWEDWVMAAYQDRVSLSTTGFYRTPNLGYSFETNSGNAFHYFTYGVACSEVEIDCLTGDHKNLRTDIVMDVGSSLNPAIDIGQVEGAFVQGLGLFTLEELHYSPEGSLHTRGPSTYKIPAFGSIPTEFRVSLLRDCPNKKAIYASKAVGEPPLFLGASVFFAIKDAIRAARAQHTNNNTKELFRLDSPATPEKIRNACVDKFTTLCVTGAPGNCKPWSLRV

For `Cc1nc(-c2cccc(C(F)(F)F)c2)sc1C(=O)O` [Example 5, 4-Methyl-2-(3-trifluoromethylphenyl)-5-thiazolecarboxylic acid], in the experiment on interleukin 1 production, the inhibition – broadly, the drop in the measured response relative to a control, in per cent – at 1 µM was determined as 60%. In addition, in the experiment on serum uric acid, the inhibition in vivo at 1 mg/kg came out at 37%. Besides, inhibition at xanthine oxidase was half-maximal at 0.63 nM (IC50).

For the compound `Cc1nc(-c2cc(C(F)(F)F)cc(C(F)(F)F)c2)sc1C(=O)O` [Example 26, 2-(3,5-Bistrifluoromethylphenyl)-4-methyl-5-thiazolecarboxylic acid], the inhibition at 1 µM with interleukin 1 production was found to be 57%. The inhibition in vivo at 1 mg/kg in the experiment with serum uric acid was determined as 63%. Moreover, at xanthine oxidase, the 50% inhibitory concentration (IC50) (commonly the point on the concentration scale where inhibition reaches its midpoint) turned out to be 5.7 nM.

In the experiment with interleukin 1 production, `Cc1nc(-c2cc(Cl)c(O)c(Cl)c2)sc1C(=O)O` [Example 28, 2-(3,5-Dichloro-4-hydroxyphenyl)-4-methyl-5-thiazolecarboxylic acid] displayed an inhibition at 1 µM of 52%. In addition, the IC50 against xanthine oxidase is 26 nM.

In the experiment on interleukin 1 production, `Cc1nc(-c2ccc(OCCC(C)C)c([N+](=O)[O-])c2)sc1C(=O)O` [Example 40, 2-(4-Isopentyloxy-3-nitrophenyl)-4-methyl-5-thiazolecarboxylic acid] came in with an inhibition at 1 µM of 36%. For the same compound, the inhibition in vivo at 1 mg/kg with serum uric acid turned out to be 85%. This compound returned an IC50 against xanthine oxidase of 0.67 nM.

Consider `Cc1nc(-c2ccc(OCC(C)(C)C)c([N+](=O)[O-])c2)sc1C(=O)O` [Example 43, 2-(4-neopentyloxy-3-nitrophenyl)-4-methyl-5-thiazolecarboxylic acid], for which, in the experiment on interleukin 1 production, the inhibition at 1 µM is 39%. The inhibition in vivo at 1 mg/kg with serum uric acid was 85%. Further, the IC50 against xanthine oxidase turned out to be 0.64 nM.

For the compound `Cc1nc(-c2ccc(N3CCCCC3)c([N+](=O)[O-])c2)sc1C(=O)O` [Example 44, 4-methyl-2-(3-nitro-4-piperidinophenyl)-5-thiazolecarboxylic acid], the inhibition at 1 µM in the experiment on interleukin 1 production was 22%. The inhibition in vivo at 1 mg/kg with serum uric acid is 83%. Also, the IC50 against xanthine oxidase was 1.6 nM.

As for `Cc1nc(-c2ccc(N3CCOCC3)c([N+](=O)[O-])c2)sc1C(=O)O` [Example 45, 4-methyl-2(4-morpholino-3-nitrophenyl)-5-thiazolecarboxylic acid], 1 µM produced 18% inhibition in the experiment with interleukin 1 production. Moreover, the inhibition in vivo at 1 mg/kg with serum uric acid was 88%. In addition, the IC50 against xanthine oxidase worked out at 1.8 nM.

For the compound `CCOc1ccc(-c2nc(C)c(C(=O)O)s2)cc1Cl` [Example 49, 2-(3-chloro-4-ethoxyphenyl)-4-methyl-5-thiazolecarboxylic acid], at 1 µM the inhibition with interleukin 1 production was 48%. In addition, the inhibition in vivo at 1 mg/kg in the experiment on serum uric acid is 35%. The compound further had an IC50 on xanthine oxidase of 2.3 nM.

Take `Cc1nc(-c2ccc(OC(C)C)c(Cl)c2)sc1C(=O)O` [Example 50, 2-(3-Chloro-4-isopropoxyphenyl)-4-methyl-5-thiazolecarboxylic acid]: the inhibition at 1 µM in the experiment with interleukin 1 production is 42%. Also, the inhibition in vivo at 1 mg/kg in the experiment on serum uric acid stood at 20%. Further, at xanthine oxidase, the IC50 stood at 2.4 nM.

In the experiment on interleukin 1 production, `Cc1nc(-c2ccc(OCCC(C)C)c(Cl)c2)sc1C(=O)O` [Example 52, 2-(3-Chloro-4-isopentyloxyphenyl)-4-methyl-5-thiazolecarboxylic acid] showed an inhibition at 1 µM of 33%. For the same compound, the inhibition in vivo at 1 mg/kg with serum uric acid turned out to be 47%. For the same compound, the IC50 against xanthine oxidase is 2.7 nM.

`Cc1nc(-c2ccc(OCc3ccc(F)cc3)c(Cl)c2)sc1C(=O)O` [Example 58, 2-(3-Chloro-4-(4-fluorobenzyloxy)phenyl)-4-methyl-5-thiazolecarboxylic acid] returned an inhibition at 1 µM in the experiment with interleukin 1 production of 19%. Also, in the experiment on serum uric acid, the inhibition in vivo at 1 mg/kg worked out at 18%. The IC50 on xanthine oxidase was 3.4 nM.

The compound `CCOCCOc1ccc(-c2nc(C)c(C(=O)O)s2)cc1Br` [Example 64, 2-(3-Bromo-4-(2-ethoxyethyloxy)phenyl)-4-methyl-5-thiazolecarboxylic acid] had an inhibition at 1 µM in the experiment on interleukin 1 production of 28%. Also, in the experiment with serum uric acid, the inhibition in vivo at 1 mg/kg amounted to 25%. The compound further registered an IC50 against xanthine oxidase of 2.9 nM.

In the experiment with interleukin 1 production, `Cc1nc(-c2ccc(OCC(C)C)c(F)c2)sc1C(=O)O` [Example 67, 2-(3-fluoro-4-isobutyloxyphenyl)-4-methyl-5-thiazolecarboxylic acid] registered an inhibition at 1 µM of 48%. Besides, in the experiment on serum uric acid, the inhibition in vivo at 1 mg/kg is 50%. Further, the IC50 at xanthine oxidase came out at 1.5 nM.
